{"source": "patent US20110206693A1", "about": "“LYSINE RIBOSWITCH AND COMPOSITIONS AND USES THEREOF” (priority 2008, published 2011)", "origin": "cited, not measured here", "data": [{"test_system": "lysine riboswitch", "conditions": "binding to the riboswitch RNA, relative to lysine; Sudarsan 2003 and Blount 2007", "units": {"lower affinity than lysine for the RNA": "fold"}, "values": [{"smiles": "NCCSC[C@H](N)C(=O)O", "note": "[AEC, S-(2-aminoethyl)-L-cysteine]", "lower affinity than lysine for the RNA": 30}, {"smiles": "NCCS(=O)(=O)C[C@H](N)C(=O)O", "note": "[AESA, L-3-[(2-aminoethyl)-sulfonyl]-alanine]", "lower affinity than lysine for the RNA": 7}]}, {"test_system": "lysine riboswitch", "conditions": "qualitative, compared with lysine", "values": [{"smiles": "C[N+](C)(C)CCCC[C@H](N)C(=O)[O-]", "note": "[N^6-trimethyl-L-lysine]", "binding / recognition by the lysine riboswitch (in words)": "precludes efficient recognition"}, {"smiles": "NCCCCC[C@H](N)C(=O)O", "note": "[L-α-homolysine]", "binding / recognition by the lysine riboswitch (in words)": "not efficiently bound"}, {"smiles": "N=C(N)NCCCC[C@H](N)C(=O)O", "note": "[homoarginine]", "binding / recognition by the lysine riboswitch (in words)": "precludes efficient recognition"}, {"smiles": "NCCC[C@H](N)C(=O)O", "note": "[L-ornithine]", "binding / recognition by the lysine riboswitch (in words)": "not efficiently bound"}]}]}
